These are literature values, as cited in patent US11179330B2, “Doxepin oral transmucosal film” (Xiamen LP Pharmaceutical Co., Ltd., priority 2019, dated 2021).

For series [1] the following is noted: patients.

Structures can show the parent of a compound that is named as a salt.

As for `CN(C)CCC=C1c2ccccc2COc2ccccc21` [Doxepin], the mean oral bioavailability was 13-45%.

In the case of `CN(C)CCC=C1c2ccccc2COc2ccccc21` [Doxepin hydrochloride], in series [1], the sleep maintained is 7 to 8 h.
